Literature values, collected in US8961477B2, “Delivery of immune response modifier compounds” (3M Innovative Properties Company, priority 2003, dated 2015).

Assays:
TLR 6 = biological target: T1, TLR 6 (Homo sapiens, UniProt Q9Y2C9); settings: statement in words, no data given
T1 construct: expressed in transfected cells
T1 sequence (Q9Y2C9 32-796): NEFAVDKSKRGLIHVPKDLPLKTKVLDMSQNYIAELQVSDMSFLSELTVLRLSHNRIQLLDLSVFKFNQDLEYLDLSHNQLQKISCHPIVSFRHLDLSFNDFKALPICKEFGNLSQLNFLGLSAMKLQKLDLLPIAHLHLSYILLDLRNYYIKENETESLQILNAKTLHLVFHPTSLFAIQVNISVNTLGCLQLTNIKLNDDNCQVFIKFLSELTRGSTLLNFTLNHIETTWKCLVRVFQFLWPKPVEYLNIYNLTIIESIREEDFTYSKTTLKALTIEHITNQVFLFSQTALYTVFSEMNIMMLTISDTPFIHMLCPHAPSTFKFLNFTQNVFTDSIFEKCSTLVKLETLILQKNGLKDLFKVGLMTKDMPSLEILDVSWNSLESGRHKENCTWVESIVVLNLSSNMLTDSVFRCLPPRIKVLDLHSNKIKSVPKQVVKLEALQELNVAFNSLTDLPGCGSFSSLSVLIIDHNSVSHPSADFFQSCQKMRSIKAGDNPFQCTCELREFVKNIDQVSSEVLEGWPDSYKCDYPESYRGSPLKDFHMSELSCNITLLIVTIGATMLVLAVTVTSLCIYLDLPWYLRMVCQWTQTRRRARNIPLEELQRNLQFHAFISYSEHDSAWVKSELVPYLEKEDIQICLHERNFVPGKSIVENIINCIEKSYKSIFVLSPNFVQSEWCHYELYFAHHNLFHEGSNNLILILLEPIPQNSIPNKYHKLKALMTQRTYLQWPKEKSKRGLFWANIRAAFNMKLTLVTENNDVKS

TLR 7 = biological target: T2, TLR 7 (Homo sapiens, UniProt Q9NYK1); settings: statement in words, no data given
T2 construct: expressed in transfected cells
T2 sequence (Q9NYK1 27-1049): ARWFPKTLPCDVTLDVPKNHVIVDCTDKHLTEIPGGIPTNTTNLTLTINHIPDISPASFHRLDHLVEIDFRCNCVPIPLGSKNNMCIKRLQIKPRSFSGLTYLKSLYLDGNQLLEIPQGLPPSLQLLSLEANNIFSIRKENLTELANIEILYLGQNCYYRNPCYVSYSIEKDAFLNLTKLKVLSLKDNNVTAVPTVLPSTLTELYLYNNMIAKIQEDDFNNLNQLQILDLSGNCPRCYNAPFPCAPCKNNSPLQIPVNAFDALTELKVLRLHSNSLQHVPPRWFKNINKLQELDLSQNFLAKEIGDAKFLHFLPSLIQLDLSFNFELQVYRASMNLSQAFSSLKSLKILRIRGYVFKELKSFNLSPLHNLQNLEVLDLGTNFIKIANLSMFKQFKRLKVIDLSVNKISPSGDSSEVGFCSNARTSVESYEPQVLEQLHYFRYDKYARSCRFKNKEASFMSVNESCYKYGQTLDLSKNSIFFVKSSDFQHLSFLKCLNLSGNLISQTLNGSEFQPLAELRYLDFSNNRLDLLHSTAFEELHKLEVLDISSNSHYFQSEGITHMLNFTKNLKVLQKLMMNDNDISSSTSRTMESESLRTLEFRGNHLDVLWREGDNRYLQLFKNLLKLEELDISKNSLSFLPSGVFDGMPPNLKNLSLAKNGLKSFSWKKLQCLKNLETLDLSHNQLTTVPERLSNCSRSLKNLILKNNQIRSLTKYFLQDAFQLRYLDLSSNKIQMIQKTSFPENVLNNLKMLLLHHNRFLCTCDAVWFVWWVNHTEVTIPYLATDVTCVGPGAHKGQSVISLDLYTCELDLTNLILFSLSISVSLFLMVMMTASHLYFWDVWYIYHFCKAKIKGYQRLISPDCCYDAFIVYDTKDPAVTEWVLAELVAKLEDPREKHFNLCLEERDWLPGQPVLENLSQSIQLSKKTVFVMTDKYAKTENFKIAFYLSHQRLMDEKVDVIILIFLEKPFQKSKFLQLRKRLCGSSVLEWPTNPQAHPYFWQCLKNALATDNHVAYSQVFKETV

TLR 8 = biological target: T3, TLR 8 (Homo sapiens, UniProt Q9NR97); settings: statement in words, no data given
T3 construct: expressed in transfected cells
T3 sequence (Q9NR97 27-1041): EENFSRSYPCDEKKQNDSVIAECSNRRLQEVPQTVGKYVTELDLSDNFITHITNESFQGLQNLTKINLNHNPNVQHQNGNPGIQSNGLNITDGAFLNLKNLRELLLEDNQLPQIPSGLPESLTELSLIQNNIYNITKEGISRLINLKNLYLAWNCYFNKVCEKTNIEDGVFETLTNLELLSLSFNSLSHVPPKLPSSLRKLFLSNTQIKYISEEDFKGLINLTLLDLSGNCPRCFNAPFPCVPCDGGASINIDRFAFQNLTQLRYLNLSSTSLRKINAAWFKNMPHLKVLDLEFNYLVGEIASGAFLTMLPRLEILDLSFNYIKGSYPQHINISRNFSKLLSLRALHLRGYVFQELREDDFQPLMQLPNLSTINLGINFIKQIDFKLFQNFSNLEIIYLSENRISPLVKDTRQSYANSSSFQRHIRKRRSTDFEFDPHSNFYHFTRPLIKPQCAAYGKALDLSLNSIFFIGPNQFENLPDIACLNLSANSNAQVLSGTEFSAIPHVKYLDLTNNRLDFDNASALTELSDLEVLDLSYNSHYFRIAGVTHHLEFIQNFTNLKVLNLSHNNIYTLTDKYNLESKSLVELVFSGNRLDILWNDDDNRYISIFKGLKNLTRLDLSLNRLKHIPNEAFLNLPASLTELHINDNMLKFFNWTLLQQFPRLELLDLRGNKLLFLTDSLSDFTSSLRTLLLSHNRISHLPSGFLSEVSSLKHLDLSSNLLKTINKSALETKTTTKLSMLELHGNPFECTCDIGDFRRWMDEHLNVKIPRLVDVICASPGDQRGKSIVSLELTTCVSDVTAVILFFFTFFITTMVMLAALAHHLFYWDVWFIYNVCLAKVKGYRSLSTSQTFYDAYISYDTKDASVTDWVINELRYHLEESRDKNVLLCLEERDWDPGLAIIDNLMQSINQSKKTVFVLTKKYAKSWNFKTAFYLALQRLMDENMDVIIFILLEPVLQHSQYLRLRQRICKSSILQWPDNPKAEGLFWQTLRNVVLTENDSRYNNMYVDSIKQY

[1] = delivered systemically

Row | SMILES | TLR 6 activity (TLR 6) | TLR 7 agonist activity (TLR 7) | TLR 8 agonist activity (TLR 8) | CNS effect compared to imiquimod [1]
1 | CC(C)(O)Cn1cnc2c(N)nc3ccccc3c21 [4-amino-α,α-dimethyl-1H-imidazo[4,5-c]quinoline-1-ethanol] | TLR 6 activity | predominantly a TLR 7 agonist | not a substantial TLR 8 agonist | much lower CNS effect
2 | CCOCc1nc2c(N)nc3c(c2n1CC(C)(C)O)CCCC3 [4-amino-2-(ethoxymethyl)-α,α-dimethyl-6,7,8,9-tetrahydro-1H-imidazo[4,5-c]quinoline-1-ethanol] | – | TLR 7 and TLR 8 agonist | TLR 7 and TLR 8 agonist | –
